Test systems include HCC-2998 colon; NCI-H460 lung; RPMI-8226 leukemia; UO-31 renal; MDA-MB-231 breast; U251 CNS; HS 578T breast; OVCAR-4 ovarian; NCI-H23 lung; SK-OV-3 ovarian.
What all share (experiment): NCI-60 cell line screen, 48 h

Where “and” joins values, the source holds several entries; their conditions need not be identical. Equal values may be shown once.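 Where inhibition never reached the appropriate level, the endpoint shown equals the highest concentration tested. Otherwise, values were interpolated linearly from a five-concentration, 48-hour dose response in 96-well plates. GI50 = concentration required for 50% inhibition of growth. TGI denotes the concentration required for complete inhibition of growth.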

On to `O=S(Nc1ccccc1)c1ccc(N2CCOCC2)cc1` (centres undefined), for which the TGI in the experiment with HCC-2998 colon is > 100 µM; with NCI-H460 lung it was > 100 µM; in the experiment on RPMI-8226 leukemia, > 100 µM; with UO-31 renal it was 42.7 µM; in the experiment with MDA-MB-231 breast, > 100 µM; in the experiment with U251 CNS, > 100 µM. The TGI in the experiment with HS 578T breast, in the experiment on OVCAR-4 ovarian and in the experiment with NCI-H23 lung was > 100 µM in each case.
On to `CN(C)C(=O)OC1C(=O)N(C)c2ccc(Cl)cc2C2(c3ccccc3)N1C2(Cl)Cl` (centres undefined), for which the TGI with HCC-2998 colon, in the experiment with NCI-H460 lung, in the experiment on RPMI-8226 leukemia, with UO-31 renal, with SK-OV-3 ovarian and in the experiment on U251 CNS was > 100 µM in each case. The TGI with OVCAR-4 ovarian and with NCI-H23 lung was > 100 µM in each case.
Take `Cc1ccc(S(=O)(=O)n2c3ccc(Br)cc3c3nc4ccccc4nc32)cc1`: the TGI in the experiment with HCC-2998 colon, in the experiment on NCI-H460 lung, with RPMI-8226 leukemia, with UO-31 renal, in the experiment on MDA-MB-231 breast and in the experiment on U251 CNS was > 100 µM each time. For the same compound, the TGI with HS 578T breast, with OVCAR-4 ovarian and in the experiment with NCI-H23 lung was > 100 µM throughout.
On to `O=C(NCCCCCCCCCCCCNC(=O)Nc1cccc2ccccc12)Nc1cccc2ccccc12`, for which the TGI came to 27.8 µM with HCC-2998 colon; 29.4 µM with NCI-H460 lung; 37.1 µM in the experiment on RPMI-8226 leukemia; 33.9 µM with UO-31 renal; 35.9 µM in the experiment with MDA-MB-231 breast; 31.8 µM in the experiment on U251 CNS. Besides, the TGI came to 52.4 µM with HS 578T breast, 24.1 µM in the experiment on OVCAR-4 ovarian and 31.5 µM in the experiment on NCI-H23 lung.
In the case of `CC1CCCC2(CC[N+](C)(CCC[N+](C)(C)C)CC2)C1` (centres undefined), the TGI in the experiment on NCI-H460 lung, in the experiment on RPMI-8226 leukemia, in the experiment on UO-31 renal, in the experiment with SK-OV-3 ovarian, with MDA-MB-231 breast and with U251 CNS was > 100 µM each time. Moreover, the TGI in the experiment with HS 578T breast and with OVCAR-4 ovarian was > 100 µM in each case.
Consider `CCOP(=O)(/C=C\n1cc(C)c(=O)[nH]c1=O)OCC`, for which the TGI with NCI-H460 lung, in the experiment with RPMI-8226 leukemia, in the experiment on SK-OV-3 ovarian, in the experiment on MDA-MB-231 breast, in the experiment on U251 CNS and with OVCAR-4 ovarian was > 100 µM in each case. Moreover, the TGI in the experiment with NCI-H23 lung was > 100 µM.
Consider `Cc1cc(C)nc(SC2=C(Nc3ccc(C)c(Cl)c3)C(=O)N(Cc3ccccc3)C2=O)n1`, for which the GI50 in the experiment on HCC-2998 colon, in the experiment on NCI-H460 lung, in the experiment on UO-31 renal, in the experiment on SK-OV-3 ovarian, in the experiment with U251 CNS and in the experiment with HS 578T breast was > 160 µM in each case. Moreover, the GI50 with OVCAR-4 ovarian and in the experiment with NCI-H23 lung was > 160 µM in each case. The TGI with HCC-2998 colon, in the experiment with NCI-H460 lung, in the experiment on UO-31 renal, in the experiment with SK-OV-3 ovarian, with U251 CNS and in the experiment on HS 578T breast was > 160 µM each time. Moreover, the TGI in the experiment with OVCAR-4 ovarian and in the experiment on NCI-H23 lung was > 160 µM each time.
For the compound `[Cl][Sn]([c]1ccccc1)([c]1ccccc1)[c]1ccccc1`, the GI50 with UO-31 renal is 0.183 µM and 0.0863 µM and 0.0343 µM; in the experiment with SK-OV-3 ovarian it was 0.239 µM and 0.178 µM; with MDA-MB-231 breast, 0.216 µM; in the experiment with HS 578T breast it was 0.378 µM; with NCI-H23 lung, 0.0815 µM and 0.0133 µM. Further, the TGI in the experiment with UO-31 renal is 0.366 µM and 0.209 µM and 0.127 µM; in the experiment with SK-OV-3 ovarian, 0.696 µM and 0.335 µM; with MDA-MB-231 breast, 0.54 µM; in the experiment on HS 578T breast it was 23 µM; in the experiment on NCI-H23 lung, 0.285 µM and 0.0456 µM.
In the case of `CC(C)=NN/C(=N\S(=O)(=O)c1ccc(Oc2cccc(Cl)c2C#N)cc1)Nc1ccc(Cl)cc1`, the TGI in the experiment with NCI-H460 lung, with RPMI-8226 leukemia, in the experiment on UO-31 renal, with MDA-MB-231 breast, in the experiment on U251 CNS and in the experiment with HS 578T breast was > 100 µM in each case. Further, the TGI in the experiment with OVCAR-4 ovarian and with NCI-H23 lung was > 100 µM throughout.
Take `C/C=C/c1cc(=O)c([C@@H]2OC(=O)c3cc(OC)cc(OC)c32)co1`: the TGI was 90 µM in the experiment with HCC-2998 colon; > 100 µM in the experiment with NCI-H460 lung; > 100 µM with RPMI-8226 leukemia; > 100 µM with UO-31 renal; > 100 µM in the experiment with OVCAR-4 ovarian; > 100 µM in the experiment with NCI-H23 lung.
For `COc1cc2ccc(=O)oc2cc1O`, in the experiment with HCC-2998 colon, the GI50 is 56.4 µM. The TGI in the experiment on HCC-2998 colon was 305 µM; in the experiment with NCI-H460 lung, 139 µM; in the experiment on RPMI-8226 leukemia it was 438 µM; in the experiment with UO-31 renal it was 183 µM; in the experiment on SK-OV-3 ovarian, 509 µM; in the experiment on U251 CNS, 455 µM. In addition, the TGI in the experiment with OVCAR-4 ovarian is > 172 µM; with NCI-H23 lung it was > 414 µM.
Take `CC(=O)Oc1cc2c(cc1OC(C)=O)OCC(c1ccc(C)cc1)C2` (centres undefined): the TGI turned out to be 16.4 µM in the experiment with HCC-2998 colon; 39.1 µM in the experiment with NCI-H460 lung; 63.1 µM with RPMI-8226 leukemia; 38.3 µM in the experiment with UO-31 renal; 112 µM in the experiment on SK-OV-3 ovarian; 38.8 µM in the experiment with U251 CNS. For the same compound, the TGI in the experiment with OVCAR-4 ovarian is 25.7 µM; with NCI-H23 lung, 32.1 µM.
For `Cc1cc(S(=O)(=O)N/C(=C(\C#N)C(=O)c2ccc(Cl)cc2)[n+]2ccc(N(C)C)cc2)c([S-])cc1Cl`, the TGI in the experiment with HCC-2998 colon is > 100 µM; in the experiment on NCI-H460 lung it was > 100 µM; with RPMI-8226 leukemia it was > 100 µM; with UO-31 renal, > 100 µM; in the experiment with SK-OV-3 ovarian, 96.7 µM; in the experiment on MDA-MB-231 breast, > 100 µM. Also, the TGI in the experiment with U251 CNS and in the experiment on OVCAR-4 ovarian was > 100 µM throughout.
Turning to `CO/N=C1\CC(NC(=O)CNC(=O)OC(C)(C)C)c2ccsc21` (centres undefined), the TGI in the experiment on HCC-2998 colon, with NCI-H460 lung, in the experiment with UO-31 renal, in the experiment on SK-OV-3 ovarian, with MDA-MB-231 breast and with U251 CNS was > 100 µM each time. Further, the TGI with HS 578T breast, with OVCAR-4 ovarian and in the experiment on NCI-H23 lung was > 100 µM throughout.
